In the NIST ThermoML archive (doi:10.1016/j.jct.2010.09.008):
Numbers after ± are expanded uncertainties.

Assays:
[1] = relative permittivity at zero frequency (dimensionless); xn = mol fraction of the nth substance listed; conditions: 101.3 kPa, Liquid, AC Method
[2] = xn = mol fraction of the nth substance listed; conditions: 101.3 kPa, Liquid, Vibrating tube method
[3] = 101.33 kPa, Liquid, Vibrating tube method
[4] = relative permittivity at zero frequency (dimensionless); conditions: 101.33 kPa, Liquid, AC method

COCCOCCOCCOC [2,5,8,11-tetraoxadodecane] + CCCCCCC
Conditions	mass density [kg/m3]	relative permittivity at zero frequency
[1], 288.15 K, x2 = 0.0502	–	7.53 ± 0.15
[1], 288.15 K, x2 = 0.0996	–	7.18 ± 0.14
[1], 288.15 K, x2 = 0.2037	–	6.44 ± 0.13
[1], 288.15 K, x2 = 0.3128	–	5.7 ± 0.11
[1], 288.15 K, x2 = 0.3994	–	5.13 ± 0.1
[1], 288.15 K, x2 = 0.5007	–	4.49 ± 0.09
[1], 288.15 K, x2 = 0.6027	–	3.88 ± 0.08
[1], 288.15 K, x2 = 0.7014	–	3.32 ± 0.07
[1], 288.15 K, x2 = 0.8007	–	2.81 ± 0.06
[1], 288.15 K, x2 = 0.8993	–	2.35 ± 0.05
[1], 288.15 K, x2 = 0.9502	–	2.14 ± 0.04
[1], 298.15 K, x2 = 0.0511	–	7.28 ± 0.15
[1], 298.15 K, x2 = 0.0992	–	6.94 ± 0.14
[1], 298.15 K, x2 = 0.2012	–	6.26 ± 0.13
[1], 298.15 K, x2 = 0.3025	–	5.59 ± 0.11
[1], 298.15 K, x2 = 0.4095	–	4.91 ± 0.1
[1], 298.15 K, x2 = 0.5014	–	4.36 ± 0.09
[1], 298.15 K, x2 = 0.6006	–	3.79 ± 0.08
[1], 298.15 K, x2 = 0.6989	–	3.26 ± 0.07
[1], 298.15 K, x2 = 0.7898	–	2.81 ± 0.06
[1], 298.15 K, x2 = 0.902	–	2.31 ± 0.05
[1], 298.15 K, x2 = 0.9501	–	2.11 ± 0.04
[1], 308.15 K, x2 = 0.0504	–	7.04 ± 0.14
[1], 308.15 K, x2 = 0.1008	–	6.71 ± 0.13
[1], 308.15 K, x2 = 0.2074	–	6.01 ± 0.12
[1], 308.15 K, x2 = 0.3092	–	5.37 ± 0.11
[1], 308.15 K, x2 = 0.4042	–	4.8 ± 0.1
[1], 308.15 K, x2 = 0.5048	–	4.22 ± 0.08
[1], 308.15 K, x2 = 0.6022	–	3.69 ± 0.07
[1], 308.15 K, x2 = 0.7071	–	3.15 ± 0.06
[1], 308.15 K, x2 = 0.801	–	2.7 ± 0.05
[1], 308.15 K, x2 = 0.9016	–	2.28 ± 0.05
[1], 308.15 K, x2 = 0.9514	–	2.09 ± 0.04
[2], 288.15 K, x2 = 0.0478	977.7 ± 0.3	–
[2], 288.15 K, x2 = 0.1018	963.5 ± 0.3	–
[2], 288.15 K, x2 = 0.2008	936.93 ± 0.3	–
[2], 288.15 K, x2 = 0.3046	908.26 ± 0.3	–
[2], 288.15 K, x2 = 0.4046	879.55 ± 0.3	–
[2], 288.15 K, x2 = 0.502	850.68 ± 0.3	–
[2], 288.15 K, x2 = 0.5988	821.04 ± 0.3	–
[2], 288.15 K, x2 = 0.6937	791 ± 0.3	–
[2], 288.15 K, x2 = 0.7981	756.91 ± 0.31	–
[2], 288.15 K, x2 = 0.8992	722.88 ± 0.31	–
[2], 288.15 K, x2 = 0.9471	706.43 ± 0.31	–
[2], 298.15 K, x2 = 0.0478	968.24 ± 0.3	–
[2], 298.15 K, x2 = 0.1018	954.08 ± 0.3	–
[2], 298.15 K, x2 = 0.2008	927.56 ± 0.3	–
[2], 298.15 K, x2 = 0.3046	898.85 ± 0.3	–
[2], 298.15 K, x2 = 0.4046	870.31 ± 0.3	–
[2], 298.15 K, x2 = 0.502	841.51 ± 0.3	–
[2], 298.15 K, x2 = 0.5988	811.96 ± 0.3	–
[2], 298.15 K, x2 = 0.6937	782.03 ± 0.3	–
[2], 298.15 K, x2 = 0.7981	748.1 ± 0.31	–
[2], 298.15 K, x2 = 0.8992	714.23 ± 0.31	–
[2], 298.15 K, x2 = 0.9471	697.88 ± 0.31	–
[2], 308.15 K, x2 = 0.0478	958.76 ± 0.3	–
[2], 308.15 K, x2 = 0.1018	944.65 ± 0.3	–
[2], 308.15 K, x2 = 0.2008	918.17 ± 0.3	–
[2], 308.15 K, x2 = 0.3046	889.51 ± 0.3	–
[2], 308.15 K, x2 = 0.4046	861.04 ± 0.3	–
[2], 308.15 K, x2 = 0.502	832.28 ± 0.3	–
[2], 308.15 K, x2 = 0.5988	802.84 ± 0.3	–
[2], 308.15 K, x2 = 0.6937	773 ± 0.3	–
[2], 308.15 K, x2 = 0.7981	739.22 ± 0.31	–
[2], 308.15 K, x2 = 0.8992	705.5 ± 0.31	–
[2], 308.15 K, x2 = 0.9471	689.25 ± 0.31	–

COCCOCCOCCOCCOC [2,5,8,11,14-pentaoxapentadecane]
Conditions	mass density, 288.15 K [kg/m3]	mass density, 298.15 K [kg/m3]	mass density, 308.15 K [kg/m3]	relative permittivity at zero frequency, 288.15 K	relative permittivity at zero frequency, 298.15 K	relative permittivity at zero frequency, 308.15 K
[3]	1015.96 ± 0.3	1006.68 ± 0.29	997.27 ± 0.29	–	–	–
[4]	–	–	–	8.04 ± 0.16	7.78 ± 0.16	7.55 ± 0.15

COCCOCCOCCOCCOC [2,5,8,11,14-pentaoxapentadecane] + CCCCCCC
Conditions	mass density, [2] [kg/m3]	relative permittivity at zero frequency, [1]
288.15 K, x2 = 0.0498	–	7.74 ± 0.15
288.15 K, x2 = 0.0505	1004.42 ± 0.3	–
288.15 K, x2 = 0.0975	993.3 ± 0.3	–
288.15 K, x2 = 0.0999	–	7.42 ± 0.15
288.15 K, x2 = 0.1982	968.25 ± 0.3	–
288.15 K, x2 = 0.2001	–	6.79 ± 0.14
288.15 K, x2 = 0.3	941.07 ± 0.3	6.15 ± 0.12
288.15 K, x2 = 0.3985	–	5.52 ± 0.11
288.15 K, x2 = 0.4	912.66 ± 0.3	–
288.15 K, x2 = 0.5009	881.97 ± 0.3	–
288.15 K, x2 = 0.5076	–	4.82 ± 0.1
288.15 K, x2 = 0.6017	848.59 ± 0.3	–
288.15 K, x2 = 0.6033	–	4.2 ± 0.08
288.15 K, x2 = 0.6931	816.13 ± 0.3	–
288.15 K, x2 = 0.7044	–	3.58 ± 0.07
288.15 K, x2 = 0.7998	775.06 ± 0.31	–
288.15 K, x2 = 0.8028	–	2.99 ± 0.06
288.15 K, x2 = 0.8972	734.27 ± 0.31	–
288.15 K, x2 = 0.8985	–	2.45 ± 0.05
288.15 K, x2 = 0.8994	–	2.45 ± 0.05
288.15 K, x2 = 0.9466	712.33 ± 0.31	–
288.15 K, x2 = 0.9495	–	2.19 ± 0.04
298.15 K, x2 = 0.0496	–	7.49 ± 0.15
298.15 K, x2 = 0.0499	995.11 ± 0.3	–
298.15 K, x2 = 0.0996	983.28 ± 0.3	–
298.15 K, x2 = 0.1016	–	7.19 ± 0.14
298.15 K, x2 = 0.1994	–	6.58 ± 0.13
298.15 K, x2 = 0.1995	958.5 ± 0.3	–
298.15 K, x2 = 0.2961	932.8 ± 0.3	–
298.15 K, x2 = 0.299	–	5.97 ± 0.12
298.15 K, x2 = 0.4031	902.6 ± 0.3	–
298.15 K, x2 = 0.406	–	5.31 ± 0.11
298.15 K, x2 = 0.4975	873.81 ± 0.3	–
298.15 K, x2 = 0.5037	–	4.7 ± 0.09
298.15 K, x2 = 0.6024	–	4.1 ± 0.08
298.15 K, x2 = 0.6043	838.65 ± 0.3	–
298.15 K, x2 = 0.6975	805.52 ± 0.3	–
298.15 K, x2 = 0.7027	–	3.51 ± 0.07
298.15 K, x2 = 0.8001	–	2.95 ± 0.06
298.15 K, x2 = 0.8006	765.91 ± 0.31	–
298.15 K, x2 = 0.8982	725.23 ± 0.31	–
298.15 K, x2 = 0.9013	–	2.41 ± 0.05
298.15 K, x2 = 0.948	703.4 ± 0.31	–
298.15 K, x2 = 0.9499	–	2.16 ± 0.04
308.15 K, x2 = 0.0469	986.65 ± 0.3	–
308.15 K, x2 = 0.0503	–	7.25 ± 0.15
308.15 K, x2 = 0.0979	974.59 ± 0.3	–
308.15 K, x2 = 0.1003	–	6.95 ± 0.14
308.15 K, x2 = 0.1976	949.94 ± 0.3	–
308.15 K, x2 = 0.201	–	6.36 ± 0.13
308.15 K, x2 = 0.2944	924.23 ± 0.3	–
308.15 K, x2 = 0.2949	–	5.82 ± 0.12
308.15 K, x2 = 0.3006	922.61 ± 0.3	–
308.15 K, x2 = 0.3924	–	5.24 ± 0.1
308.15 K, x2 = 0.404	893.13 ± 0.3	–
308.15 K, x2 = 0.4956	865.23 ± 0.3	–
308.15 K, x2 = 0.5048	–	4.58 ± 0.09
308.15 K, x2 = 0.6018	830.49 ± 0.3	–
308.15 K, x2 = 0.6066	–	3.98 ± 0.08
308.15 K, x2 = 0.6965	796.89 ± 0.31	–
308.15 K, x2 = 0.7117	–	3.38 ± 0.07
308.15 K, x2 = 0.7981	758.07 ± 0.31	–
308.15 K, x2 = 0.7999	–	2.9 ± 0.06
308.15 K, x2 = 0.8986	716.39 ± 0.31	–
308.15 K, x2 = 0.8988	–	2.38 ± 0.05
308.15 K, x2 = 0.9479	694.69 ± 0.32	–
308.15 K, x2 = 0.9491	–	2.14 ± 0.04
